These results are taken from ChEMBL document CHEMBL3098057, “(E)-Alkenes as replacements of amide bonds: development of novel and potent acyclic CGRP receptor antagonists” (Bioorg Med Chem Lett, 2014).

The nature of data set [1]: Apparent passive permeability of the compound in presence of […]. The class given is physicochemical. The settings on record: not told.
For the next data set, the system named is human MDR1. The experiment in a line: Efflux ratio of permeability from basolateral to apical side over apical to basolateral side in pig LLC-PK1 cells expressing human MDR1. The format is ADME, cell-based, Sus scrofa.
In data set [2] the target is Calcitonin-gene-related peptide receptor, CALCRL/RAMP1 (Homo sapiens, UniProt O60894+Q16602). The data set is described as follows: Displacement of [125I]-hCGRP from human CALCRL/RAMP1 expressed in HEK293 cell membranes.
Sequence of Calcitonin-gene-related peptide receptor, CALCRL/RAMP1 (O60894 whole entry): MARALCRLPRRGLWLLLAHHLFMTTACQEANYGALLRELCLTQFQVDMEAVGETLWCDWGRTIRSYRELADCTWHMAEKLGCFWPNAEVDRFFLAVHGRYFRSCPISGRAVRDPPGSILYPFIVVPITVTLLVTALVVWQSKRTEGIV
Sequence of Calcitonin-gene-related peptide receptor, CALCRL/RAMP1 (Q16602 whole entry): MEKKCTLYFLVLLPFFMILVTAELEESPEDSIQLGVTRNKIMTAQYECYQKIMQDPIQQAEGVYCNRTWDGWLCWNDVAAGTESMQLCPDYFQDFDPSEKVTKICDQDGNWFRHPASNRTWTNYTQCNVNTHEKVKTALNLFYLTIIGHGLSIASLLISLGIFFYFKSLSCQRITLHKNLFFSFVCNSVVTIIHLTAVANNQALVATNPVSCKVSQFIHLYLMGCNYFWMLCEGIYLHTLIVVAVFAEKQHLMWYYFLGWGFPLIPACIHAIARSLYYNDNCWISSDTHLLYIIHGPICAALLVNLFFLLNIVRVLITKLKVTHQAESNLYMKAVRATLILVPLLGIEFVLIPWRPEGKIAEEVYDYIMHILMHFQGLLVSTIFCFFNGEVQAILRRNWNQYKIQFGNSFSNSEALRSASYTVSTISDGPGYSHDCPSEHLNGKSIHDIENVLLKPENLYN
Data set [3] in a line: Clearance in rat at 2 mg/kg. The class given is ADME, organism-based. The arrangement: dose 2 mg/kg. As to conditions: in vivo.
Data set [4] in a line: Half life in rat at 2 mg/kg. The class given is ADME, organism-based. Further details: dose 2 mg/kg. The settings on record: in vivo.
A short description of data set [5]: Oral bioavailability in rat at 10 mg/kg. The class given is ADME, organism-based. As to conditions: in vivo.

As usually defined, the Papp is a coefficient for how fast a substance crosses the barrier. A word on the efflux ratio: it is the permeability from basolateral to apical divided by that in the opposite direction, in the common usage. The term Ki denotes the dissociation constant of the complex between target and ligand, obtained from inhibition or displacement. As a reminder, the clearance is a measure of how efficiently the substance is removed, as volume per time. Higher therefore signals a high capacity for elimination. A word on the half-life: it is the time in which the quantity being followed falls by half. Usually bioavailability stands for dose-corrected exposure relative to a reference, in per cent. Low values mean little systemic uptake, high ones much systemic uptake.

The structures appear in SMILES notation.

Consider `C[C@H](c1cc(F)cc(F)c1)N(Cc1cnc2cc3c(cc2c1)C[C@@]1(C3)C(=O)Nc2ncccc21)C(=O)C(C)(C)C`, for which the Papp in data set [1] was found to be 20 ×10⁻⁶ cm/s. In addition, the efflux ratio with human MDR1 came out at 1.3.
Turning to `C[C@H](c1cc(F)cc(F)c1)N(C/C=C/c1ccc2c(c1)C[C@@]1(C2)C(=O)Nc2ncccc21)C(=O)[C@@H]1CCCN1C`, the Papp in data set [1] is 33 ×10⁻⁶ cm/s. Moreover, in the data set on human MDR1, the efflux ratio was found to be 27. For the same compound, the Ki in data set [2] is 3.38 nM.
With `C[C@H](c1ccccc1)N(C/C=C/c1ccc2c(c1)C[C@@]1(C2)C(=O)Nc2ncccc21)C(=O)C(C)(C)C`, the Ki in data set [2] is 0.35 nM.
On to `CC(C)(C)C(=O)N(C/C=C/c1ccc2c(c1)C[C@@]1(C2)C(=O)Nc2ncccc21)[C@@H]1CCc2ccccc21`, for which the Ki in data set [2] was 0.2 nM.
Still for that read-out and setting: in the case of `CC(C)C(=O)N(C/C=C/c1ccc2c(c1)C[C@@]1(C2)C(=O)Nc2ncccc21)[C@H](C)c1cc(F)cc(F)c1` it was 1.27 nM.
Turning to `C[C@H](c1cc(F)cc(F)c1)N(C/C=C/c1ccc2c(c1)C[C@@]1(C2)C(=O)Nc2ncccc21)C(=O)C1CCOCC1`, the Papp in data set [1] came out at 32 ×10⁻⁶ cm/s. In the data set on human MDR1, the efflux ratio came to 1.9. Besides, the Ki in data set [2] was 0.09 nM.
On the same counts, the results for `Cc1cc(C(=O)N(C/C=C/c2ccc3c(c2)C[C@@]2(C3)C(=O)Nc3ncccc32)[C@H](C)c2cc(F)cc(F)c2)n(C)n1` are 17 ×10⁻⁶ cm/s, 2 and 0.45 nM.
With `C[C@H](c1cc(F)cc(F)c1)N(C/C=C/c1cnc2c(c1)C[C@@]1(C2)C(=O)Nc2ncccc21)C(=O)C(C)(C)C`, in data set [3], the clearance came out at 23 mL/min/kg. Moreover, the half-life in data set [4] was 11 h. In addition, in data set [5], the bioavailability was found to be 51%. The Papp in data set [1] turned out to be 27 ×10⁻⁶ cm/s. In addition, the efflux ratio in the data set with human MDR1 was found to be 1.4. In addition, the Ki in data set [2] is 0.04 nM.
In the case of `C[C@H](c1ccccc1)N(C/C=C/c1cnc2c(c1)C[C@@]1(C2)C(=O)Nc2ncccc21)C(=O)C(C)(C)C`, in data set [2], the Ki was 0.22 nM.
In the case of `CC(C)(C)C(=O)N(C/C=C/c1cnc2c(c1)C[C@@]1(C2)C(=O)Nc2ncccc21)[C@@H]1CCc2ccccc21`, in data set [1], the Papp was found to be 24 ×10⁻⁶ cm/s. The efflux ratio with human MDR1 was 3.1. The inhibitory constant (Ki) in data set [2] was 0.08 nM.
On the same counts, the results for `CC(C)(C)C(=O)N(C/C=C/c1cnc2c(c1)C[C@@]1(C2)C(=O)Nc2ncccc21)Cc1cc(F)cc(F)c1` are 23 ×10⁻⁶ cm/s, 0.9 and 0.93 nM.
As for `CC(C)(C)C(=O)N(C/C=C/c1cnc2c(c1)C[C@@]1(C2)C(=O)Nc2ncccc21)C1CCCCCC1`, the Papp in data set [1] turned out to be 20 ×10⁻⁶ cm/s. In the data set on human MDR1, the efflux ratio is 0.8. In addition, the Ki in data set [2] is 0.89 nM.
As for `Cc1ccc([C@@H](C)N(C/C=C/c2cnc3c(c2)C[C@@]2(C3)C(=O)Nc3ncccc32)C(=O)C(C)(C)C)cc1F`, the Papp in data set [1] was found to be 18 ×10⁻⁶ cm/s. In addition, the efflux ratio in the data set with human MDR1 was found to be 1.1.
As to `C[C@H](c1ccc(Cl)cc1)N(C/C=C/c1cnc2c(c1)C[C@@]1(C2)C(=O)Nc2ncccc21)C(=O)C(C)(C)C`, the apparent permeability (Papp) in data set [1] is 17 ×10⁻⁶ cm/s. For the same compound, the efflux ratio in the data set on human MDR1 was 1. Further, the Ki in data set [2] was 0.31 nM.
`C[C@H](c1cc(F)cc(F)c1)N(C/C=C/c1cnc2c(c1)C[C@@]1(C2)C(=O)Nc2ncccc21)C(=O)C1(C(F)(F)F)CC1`: in data set [1], the Papp worked out at 21 ×10⁻⁶ cm/s. In the data set on human MDR1, the efflux ratio amounted to 2.
With `Cc1ccsc1C(=O)N(C/C=C/c1cnc2c(c1)C[C@@]1(C2)C(=O)Nc2ncccc21)[C@H](C)c1cc(F)cc(F)c1`, the Papp in data set [1] was 17 ×10⁻⁶ cm/s. Besides, the efflux ratio in the data set on human MDR1 came out at 1.5. Besides, the Ki in data set [2] is 0.13 nM.
In the case of `C[C@H](c1cc(F)cc(F)c1)N(C/C=C/c1cnc2c(c1)C[C@@]1(C2)C(=O)Nc2ncccc21)C(=O)c1nccn1C`, the Papp in data set [1] stood at 28 ×10⁻⁶ cm/s. For the same compound, the efflux ratio in the data set on human MDR1 worked out at 19. In addition, the Ki in data set [2] was 0.16 nM.
The corresponding values for `Cc1noc(C)c1C(=O)N(C/C=C/c1cnc2c(c1)C[C@@]1(C2)C(=O)Nc2ncccc21)[C@H](C)c1cc(F)cc(F)c1` are 29 ×10⁻⁶ cm/s, 16 and 2.39 nM.
For the compound `CC(C)(C)C(=O)N(CC#Cc1ccc2c(c1)C[C@@]1(C2)C(=O)Nc2ncccc21)[C@@H]1CCc2ccccc21`, the Ki in data set [2] was 0.2 nM.
Take `C[C@H](c1ccccc1)N(CC#Cc1ccc2c(c1)C[C@@]1(C2)C(=O)Nc2ncccc21)C(=O)C(C)(C)C`: the Ki in data set [2] was 0.82 nM.
With `CC(C)(C)C(=O)N(CC#Cc1cnc2c(c1)C[C@@]1(C2)C(=O)Nc2ncccc21)[C@@H]1CCc2ccccc21`, the Papp in data set [1] was 26 ×10⁻⁶ cm/s. For the same compound, the efflux ratio in the data set on human MDR1 was found to be 1.1. For the same compound, in data set [2], the Ki was 0.05 nM.
On the same counts, the results for `C[C@H](c1ccccc1)N(CC#Cc1cnc2c(c1)C[C@@]1(C2)C(=O)Nc2ncccc21)C(=O)C(C)(C)C` are 33 ×10⁻⁶ cm/s, 1.3 and 0.13 nM.
Turning to `CC(C)(C)C(=O)N(CCCc1ccc2c(c1)C[C@@]1(C2)C(=O)Nc2ncccc21)[C@@H]1CCc2ccccc21`, the Ki in data set [2] is 2.06 nM.
For the compound `C[C@H](c1ccccc1)N(CCCc1ccc2c(c1)C[C@@]1(C2)C(=O)Nc2ncccc21)C(=O)C(C)(C)C`, the Ki in data set [2] is 7.6 nM.
Regarding `C[C@H](c1cc(F)cc(F)c1)N(CCCc1cnc2c(c1)C[C@@]1(C2)C(=O)Nc2ncccc21)C(=O)C(C)(C)C`, the Papp in data set [1] worked out at 26 ×10⁻⁶ cm/s. Moreover, the efflux ratio in the data set on human MDR1 was found to be 3.1. The Ki in data set [2] is 0.22 nM.
In the case of `CC(C)(C)C(=O)N(CCCc1cnc2c(c1)C[C@@]1(C2)C(=O)Nc2ncccc21)[C@@H]1CCc2ccccc21`, the Papp in data set [1] was 33 ×10⁻⁶ cm/s. In addition, the efflux ratio with human MDR1 was found to be 2.6. The Ki in data set [2] is 0.61 nM.
For `C[C@H](c1ccccc1)N(CCCc1cnc2c(c1)C[C@@]1(C2)C(=O)Nc2ncccc21)C(=O)C(C)(C)C`, in data set [1], the Papp is 39 ×10⁻⁶ cm/s. Moreover, in the data set on human MDR1, the efflux ratio stood at 3.2. Moreover, in data set [2], the Ki is 1.35 nM.
On to `C[C@H](c1cc(F)cc(F)c1)N(CC(=O)Nc1ccc2c(c1)C[C@@]1(C2)C(=O)Nc2ncccc21)C(=O)C(C)(C)C`, for which the clearance in data set [3] worked out at 11 mL/min/kg. In data set [4], this compound gave a half-life of 1 h. For the same compound, the Papp in data set [1] is 26 ×10⁻⁶ cm/s. Further, the efflux ratio in the data set with human MDR1 stood at 3.2.
In the case of `C[C@H](c1cc(F)cc(F)c1)N(C/C=C/c1ccc2c(c1)C[C@@]1(C2)C(=O)Nc2ncccc21)C(=O)C(C)(C)C`, the Ki in data set [2] is 0.16 nM.
Turning to `C[C@H](c1cc(F)cc(F)c1)N(CC(=O)Nc1ccc2c(c1)C[C@@]1(C2)C(=O)NC(=O)N1C)C(=O)C(C)(C)C`, the Papp in data set [1] stood at 25 ×10⁻⁶ cm/s. The efflux ratio in the data set with human MDR1 was found to be 8.8.
